Measurements taken from patent publication US5942518A, “Water-soluble fluoroethylcamptothecin derivative and process for production thereof” (priority 1995, dated 1999).
Structures can show the parent of a compound that is named as a salt.

Tests used:
[1] = cited from earlier work
[2] = test system: mouse colonic cancer colon 26; assay: Antineoplastic effect against mouse colonic cancer colon 26 (Experimental Example 2); assay type: in vivo, CDF-1 female mice; conditions: for TGI (tumor growth inhibition rate): colon 26, tail vein, 3 times at 4-day intervals, day 17-19; for antineoplastic activity against the growth of advanced colonic cancer 26 tumor: mice, intravenous administration
Description: (§1) To CDF-1 female mice of 9-week age, 1×10^6 cells of mouse colonic cancer colon 26 were implanted respectively under the skin of the axillary fossa. The medicine was administered to the tail vein three times from six days after the administration when the tumor was detected by finger touch at intervals of four days. On the 17th to 19th days from the implantation,the tumors were enucleated and weighed. The antineoplastic effect is represented by the tumor growth inhibition rate (TGI=(1-T/C)×100) derived from the ratio (T/C) of the average tumor weight (T) of the medicine-administered group to the average tumor weight (C) of the control group.

[3] = Toxicity in the colon 26 mouse study; assay type: in vivo, CDF-1 female mice
Description: as §1

acetylcholine esterase = assay: Inhibition of acetylcholine esterase reaction (Experimental Example 3); assay type: biochemical
Sequence of acetylcholine esterase (P22303 32-614): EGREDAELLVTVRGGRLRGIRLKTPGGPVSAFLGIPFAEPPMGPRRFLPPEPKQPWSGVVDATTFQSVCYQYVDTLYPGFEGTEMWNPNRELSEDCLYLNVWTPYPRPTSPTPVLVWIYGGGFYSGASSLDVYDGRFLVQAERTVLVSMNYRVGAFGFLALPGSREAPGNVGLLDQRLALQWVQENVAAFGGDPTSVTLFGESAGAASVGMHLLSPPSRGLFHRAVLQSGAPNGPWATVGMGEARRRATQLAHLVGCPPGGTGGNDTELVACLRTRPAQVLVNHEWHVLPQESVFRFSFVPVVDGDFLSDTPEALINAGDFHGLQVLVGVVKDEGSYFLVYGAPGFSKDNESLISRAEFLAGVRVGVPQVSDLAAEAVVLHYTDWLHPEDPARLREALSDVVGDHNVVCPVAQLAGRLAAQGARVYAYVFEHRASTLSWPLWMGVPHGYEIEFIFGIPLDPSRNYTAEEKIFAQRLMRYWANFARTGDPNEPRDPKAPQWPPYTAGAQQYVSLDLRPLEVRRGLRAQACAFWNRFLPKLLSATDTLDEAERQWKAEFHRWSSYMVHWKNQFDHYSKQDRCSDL
Description: The absorbance was measured at 412 nm. The reaction rate and the acetylthiocholine iodide concentration was plotted according to Lineweaver-Burk method to obtain Vmax, and Km. Then, the inhibition constant (Ki) was calculated from the inhibitor concentration.

sarcoma 180 = assay: Antineoplastic effect against mouse sarcoma 180 tumor (Experimental Example 1); assay type: in vivo, ICR female mice; conditions: sarcoma 180, tail vein, 3 times at 4-day intervals, day 14
Description: To ICR female mice of 5-week age, 5×10^6 cells of sarcoma 180 were implanted respectively under the skin of the axillary fossa. The medicine was administered to the tail vein three times from the day next to the administration at intervals of four days. After 14 days from the implantation, the tumors were enucleated and weighed. The antineoplastic effect is represented by the tumor growth inhibition rate (TGI=(1-T/C)×100) derived from the ratio (T/C) of the average tumor weight (T) of the medicine-administered group to the average tumor weight (C) of the control group.

nucleic acid synthesis = conditions: background; cited from earlier work

| SMILES | TGI (tumor growth inhibition rate) ([2]; total dose 30 mg/kg) [%] | antineoplastic activity against the growth of advanced colonic cancer 26 tumor [2] | TGI (tumor growth inhibition rate) ([2]; total dose 60 mg/kg) [%] | TGI (tumor growth inhibition rate) ([2]; total dose 120 mg/kg) [%] | TGI (tumor growth inhibition rate) (sarcoma 180; total dose 60 mg/kg) [%] | TGI (tumor growth inhibition rate) (sarcoma 180; total dose 120 mg/kg) [%] | also measured |
| --- | --- | --- | --- | --- | --- | --- | --- |
| CCC1(OC(=O)CN)C(=O)OCc2c1cc1n(c2=O)Cc2cc3cc4c(cc3nc2-1)OCO4 (stereo not drawn) [10,11-methylenedioxy-20-O-glycylcamptothecin] | – | – | – | – | – | – | toxicity / side effects ([1]; known camptothecin derivatives, background): highly toxic |
| CC[C@@]1(OC(=O)CN)C(=O)OCc2c1cc1n(c2=O)Cc2cc3cc4c(cc3nc2-1)OCO4.Cl [Compound 1, 10,11-Methylenedioxy-20-O-glycylcamptothecin hydrochloride] | 44 | not inhibited | – | – | – | – | TGI (tumor growth inhibition rate) ([2]; total dose 7.5 mg/kg): 21%; TGI (tumor growth inhibition rate) ([2]; total dose 15 mg/kg): 22%; Toxicity ([3]; at a dose of as low as 20 mg/kg): toxic; Toxicity ([3]; colon 26 mice, tail vein, total dose 60 mg/kg): Toxic |
| CCOc1ccc2nc3c(c(CC)c2c1)Cn1c-3cc2c(c1=O)COC(=O)C2(CCF)OC(=O)CN (stereo not drawn) [Example 1, 4-[(aminomethylcarbonyl)oxy]-9-ethoxy-11-ethyl-4-(2-fluoroethyl)-1H-pyrano[3',4':6,7]indolidino[1,2-b]quinoline-3,14(4H,12H)-dione hydrochloride] | 28 | – | 59 | 81 | 83 | 91 | Ki (acetylcholine esterase): 20 to 40 µM; TGI (tumor growth inhibition rate) ([2]; total dose 180 mg/kg): 82% |
| CCc1c2c(nc3ccc(OC(=O)N4CCC(N5CCCCC5)CC4)cc13)-c1cc3c(c(=O)n1C2)COC(=O)[C@]3(O)CC [Irinotecan hydrochloride, irinotecan hydrochloride] | 8 | not inhibited | 28 | 34 | 75 | 74 | TGI (tumor growth inhibition rate) (sarcoma 180; total dose 30 mg/kg): 44%; Toxicity ([3]; colon 26 mice, tail vein, total dose 120 mg/kg): Toxic |
| CC[C@@]1(O)C(=O)OCc2c1cc1n(c2=O)Cc2cc3ccccc3nc2-1 [camptothecin, Camptothecin] | – | – | – | – | – | – | antineoplastic activity by inhibiting nucleic acid synthesis (nucleic acid synthesis): exhibit antineoplastic activity by inhibiting nucleic acid synthesis; clinical toxicity ([1]; clinical tests in the United States): discontinued because of its toxicity |
